The results in this text go back to patent US6995185B2, “Δ1-pyrrolines used as pesticides” (Bayer Cropscience AG, priority 2000, dated 2006).

Structures are written as SMILES.

This data set in a line: log P determination by HPLC on reversed-phase column (C 18), EEC directive 79/831 Annex V.A8. The data set is classed as physicochemical. Conditions: 43° C.; for chromatographic logP: reversed-phase HPLC column (C 18). As to the method:
The log P values given in the tables and Preparation Examples above are determined in accordance with EEC directive 79/831 Annex V.A8 by HPLC (High Performance Liquid Chromatography) using a reversed-phase column (C 18). Temperature: 43° C. In the acidic range, the determination is carried out at pH 2.3 using the mobile phases 0.1% aqueous phosphoric acid and acetonitrile; linear gradient from 10% acetonitrile to 90% acetonitrile (marked^a) in the table). In the neutral range, the determination is carried out at pH 7.5 using the mobile phases 0.01-molar aqueous phosphate buffer solution and acetonitrile; linear gradient from 10% acetonitrile to 90% acetonitrile (marked^b) in the table). Calibration is carried out using unbranched alkan-2-ones (having 3 to 16 carbon atoms) with known log P values (determination of the log P values by the retention times using linear interpolation between two successive alkanones).

The mark [1] stands for this setting: pH 2.3, pH 2.3 (marked a), 0.1% aqueous phosphoric acid/acetonitrile.
Setting [2] is: pH 7.5, pH 7.5 (marked b), 0.01-molar aqueous phosphate buffer/acetonitrile.

For `COC(=O)[C@H]1CC(c2ccccc2Cl)=N[C@H]1c1ccc(-c2ccc(OC(F)(F)F)cc2)cc1` (racemic) [Example 5, methyl ((2S, 3R), (2R, 3S))-5-(2-chlorophenyl)-2-[4′-(trifluoromethoxy)-1,1′-biphenyl-4-yl]-3,4-dihydro-2H-pyrrole-3-carboxylate], the chromatographic logP – broadly, lipophilicity estimated from chromatographic retention – under setting [1] is 5.05. `CCOC(=O)[C@H]1CC(c2c(F)cccc2F)=NC1c1ccc(-c2ccc(OC(F)(F)F)cc2)cc1` (stereo partly drawn) [Example 10] yielded a chromatographic logP under setting [1] of 4.73. For the compound `O=C(O)[C@H]1CC(c2c(F)cccc2F)=NC1c1ccc(-c2ccc(OC(F)(F)F)cc2)cc1` (stereo partly drawn) [Example 11], the chromatographic logP under setting [1] came out at 3.35.

Under setting [1], `CC(C)OC(=O)[C@H]1CC(c2c(F)cccc2F)=NC1c1ccc(-c2ccc(OC(F)(F)F)cc2)cc1` (stereo partly drawn) [Example 12] registered a chromatographic logP of 5.05. Consider `CCCCOC(=O)[C@H]1CC(c2c(F)cccc2F)=NC1c1ccc(-c2ccc(OC(F)(F)F)cc2)cc1` (stereo partly drawn) [Example 14], for which the chromatographic logP came to 5.41 under setting [1] and 5.49 under setting [2].

Turning to `CCCCCCOC(=O)[C@H]1CC(c2c(F)cccc2F)=NC1c1ccc(-c2ccc(OC(F)(F)F)cc2)cc1` (stereo partly drawn) [Example 15], the chromatographic logP is, setting by setting: under setting [1], 6.11; under setting [2], 6.18.

`CCC(C)OC(=O)[C@H]1CC(c2c(F)cccc2F)=NC1c1ccc(-c2ccc(OC(F)(F)F)cc2)cc1` (stereo partly drawn) [Example 16]: the chromatographic logP is 5.4 under setting [1] and 5.48 under setting [2]. Turning to `CC(C)COC(=O)[C@H]1CC(c2c(F)cccc2F)=NC1c1ccc(-c2ccc(OC(F)(F)F)cc2)cc1` (stereo partly drawn) [Example 17], the chromatographic logP reads like this: under setting [1], 5.38; under setting [2], 5.47. Turning to `O=C(OC1CCCC1)[C@H]1CC(c2c(F)cccc2F)=NC1c1ccc(-c2ccc(OC(F)(F)F)cc2)cc1` (stereo partly drawn) [Example 18], the chromatographic logP runs as follows: under setting [1], 5.47; under setting [2], 5.54.

On to `O=C(OC1CCCCC1)[C@H]1CC(c2c(F)cccc2F)=NC1c1ccc(-c2ccc(OC(F)(F)F)cc2)cc1` (stereo partly drawn) [Example 19], for which the chromatographic logP under setting [1] was 5.85 and the chromatographic logP under setting [2] was found to be 5.91. Regarding `CCCCCOC(=O)[C@H]1CC(c2c(F)cccc2F)=NC1c1ccc(-c2ccc(OC(F)(F)F)cc2)cc1` (stereo partly drawn) [Example 20], the chromatographic logP under setting [1] was determined as 5.84. Regarding `CC(C)(C)COC(=O)[C@H]1CC(c2c(F)cccc2F)=NC1c1ccc(-c2ccc(OC(F)(F)F)cc2)cc1` (stereo partly drawn) [Example 21], under setting [1], the chromatographic logP is 5.78. With `CC(C)C(C)OC(=O)[C@H]1CC(c2c(F)cccc2F)=NC1c1ccc(-c2ccc(OC(F)(F)F)cc2)cc1` (stereo partly drawn) [Example 22], under setting [1], the chromatographic logP was 5.71. Regarding `CCC(CC)OC(=O)[C@H]1CC(c2c(F)cccc2F)=NC1c1ccc(-c2ccc(OC(F)(F)F)cc2)cc1` (stereo partly drawn) [Example 23], under setting [1], the chromatographic logP worked out at 5.78. In turn, `COCCOC(=O)[C@H]1CC(c2c(F)cccc2F)=NC1c1ccc(-c2ccc(OC(F)(F)F)cc2)cc1` (stereo partly drawn) [Example 24] displayed a chromatographic logP under setting [1] of 4.37. Under setting [1], `N#CCCOC(=O)[C@H]1CC(c2c(F)cccc2F)=NC1c1ccc(-c2ccc(OC(F)(F)F)cc2)cc1` (stereo partly drawn) [Example 25] came in with a chromatographic logP of 4.08.

`C=CCCCOC(=O)[C@H]1CC(c2c(F)cccc2F)=NC1c1ccc(-c2ccc(OC(F)(F)F)cc2)cc1` (stereo partly drawn) [Example 26] showed a chromatographic logP under setting [1] of 5.48.

Turning to `C=C(C)CCOC(=O)[C@H]1CC(c2c(F)cccc2F)=NC1c1ccc(-c2ccc(OC(F)(F)F)cc2)cc1` (stereo partly drawn) [Example 27], under setting [1], the chromatographic logP amounted to 5.48. `O=C(OCc1ccoc1)[C@H]1CC(c2c(F)cccc2F)=NC1c1ccc(-c2ccc(OC(F)(F)F)cc2)cc1` (stereo partly drawn) [Example 28]: the chromatographic logP under setting [1] worked out at 4.87. Same read-out and setting: next, `N#CCOC(=O)[C@H]1CC(c2c(F)cccc2F)=NC1c1ccc(-c2ccc(OC(F)(F)F)cc2)cc1` (stereo partly drawn) [Example 29]: 4.23; `N#CCCCOC(=O)[C@H]1CC(c2c(F)cccc2F)=NC1c1ccc(-c2ccc(OC(F)(F)F)cc2)cc1` (stereo partly drawn) [Example 30]: 4.18; `O=C(OC/C=C/c1ccccc1)[C@H]1CC(c2c(F)cccc2F)=NC1c1ccc(-c2ccc(OC(F)(F)F)cc2)cc1` (stereo partly drawn) [Example 31]: 5.55.

`CC(C)(COC(=O)[C@H]1CC(c2c(F)cccc2F)=NC1c1ccc(-c2ccc(OC(F)(F)F)cc2)cc1)[N+](=O)[O-]` (stereo partly drawn) [Example 32] gave a chromatographic logP under setting [1] of 4.77. Consider `O=C(OCCCc1ccccc1)[C@H]1CC(c2c(F)cccc2F)=NC1c1ccc(-c2ccc(OC(F)(F)F)cc2)cc1` (stereo partly drawn) [Example 33], for which the chromatographic logP under setting [1] is 5.78. Same read-out and setting: next, `O=C(OCc1ccccc1)[C@H]1CC(c2c(F)cccc2F)=NC1c1ccc(-c2ccc(OC(F)(F)F)cc2)cc1` (stereo partly drawn) [Example 34]: 5.31; `O=C(OCc1ccccc1Cl)[C@H]1CC(c2c(F)cccc2F)=NC1c1ccc(-c2ccc(OC(F)(F)F)cc2)cc1` (stereo partly drawn) [Example 35]: 5.65; `O=C(OCc1cccc(Cl)c1)[C@H]1CC(c2c(F)cccc2F)=NC1c1ccc(-c2ccc(OC(F)(F)F)cc2)cc1` (stereo partly drawn) [Example 36]: 5.58. Turning to `CC(OC(=O)[C@H]1CC(c2c(F)cccc2F)=NC1c1ccc(-c2ccc(OC(F)(F)F)cc2)cc1)c1ccccc1` (stereo partly drawn) [Example 38], under setting [1], the chromatographic logP was determined as 5.54. For `COC(=O)[C@@H](C)COC(=O)[C@H]1CC(c2c(F)cccc2F)=NC1c1ccc(-c2ccc(OC(F)(F)F)cc2)cc1` (stereo partly drawn) [Example 39], the chromatographic logP under setting [1] was determined as 4.67.

Take `COC(=O)[C@H](C)COC(=O)[C@H]1CC(c2c(F)cccc2F)=NC1c1ccc(-c2ccc(OC(F)(F)F)cc2)cc1` (stereo partly drawn) [Example 40]: the chromatographic logP under setting [1] was 4.67.

`O=C(OCC1CCCCC1)[C@H]1CC(c2c(F)cccc2F)=NC1c1ccc(-c2ccc(OC(F)(F)F)cc2)cc1` (stereo partly drawn) [Example 41]: under setting [1], the chromatographic logP was found to be 6.28.

`O=C(OCCOc1ccccc1)[C@H]1CC(c2c(F)cccc2F)=NC1c1ccc(-c2ccc(OC(F)(F)F)cc2)cc1` (stereo partly drawn) [Example 42] showed a chromatographic logP under setting [1] of 5.21. `O=C(OCc1cccs1)[C@H]1CC(c2c(F)cccc2F)=NC1c1ccc(-c2ccc(OC(F)(F)F)cc2)cc1` (stereo partly drawn) [Example 43]: under setting [1], the chromatographic logP was found to be 5.19. With `O=C(OCc1ccsc1)[C@H]1CC(c2c(F)cccc2F)=NC1c1ccc(-c2ccc(OC(F)(F)F)cc2)cc1` (stereo partly drawn) [Example 44], the chromatographic logP under setting [1] was determined as 5.14.

As to `O=C(OCCCN1CCCC1=O)[C@H]1CC(c2c(F)cccc2F)=NC1c1ccc(-c2ccc(OC(F)(F)F)cc2)cc1` (stereo partly drawn) [Example 45], the chromatographic logP under setting [1] came out at 3.72. `CC(C)N(C(=O)COC(=O)[C@H]1CC(c2c(F)cccc2F)=NC1c1ccc(-c2ccc(OC(F)(F)F)cc2)cc1)c1ccc(F)cc1` (stereo partly drawn) [Example 46] returned a chromatographic logP under setting [1] of 4.98. With `O=C(OCc1ccc(Cl)nc1)[C@H]1CC(c2c(F)cccc2F)=NC1c1ccc(-c2ccc(OC(F)(F)F)cc2)cc1` (stereo partly drawn) [Example 47], the chromatographic logP under setting [1] stood at 4.82. Take `CC1CCC(OC(=O)[C@H]2CC(c3c(F)cccc3F)=NC2c2ccc(-c3ccc(OC(F)(F)F)cc3)cc2)CC1` (stereo partly drawn) [Example 48]: the chromatographic logP under setting [1] was determined as 6.22. Regarding `CC1CCC(OC(=O)[C@H]2CC(c3c(F)cccc3F)=NC2c2ccc(-c3ccc(OC(F)(F)F)cc3)cc2)CC1` (stereo partly drawn) [Example 49], the “log P” value (pH 2.3 (marked a), 0.1% aqueous phosphoric acid/acetonitrile) is 6.28^a).

Take `CC(OC(=O)[C@H]1CC(c2c(F)cccc2F)=NC1c1ccc(-c2ccc(OC(F)(F)F)cc2)cc1)C1CCCCC1` (stereo partly drawn) [Example 50]: the chromatographic logP under setting [1] is 6.54.

`O=C(OC1CCCc2ccccc21)[C@H]1CC(c2c(F)cccc2F)=NC1c1ccc(-c2ccc(OC(F)(F)F)cc2)cc1` (stereo partly drawn) [Example 51]: the chromatographic logP under setting [1] came out at 5.97. For `O=C(OC1CCc2ccccc21)[C@H]1CC(c2c(F)cccc2F)=NC1c1ccc(-c2ccc(OC(F)(F)F)cc2)cc1` (stereo partly drawn) [Example 52], the chromatographic logP under setting [1] came to 5.71. In turn, `O=C(OCc1ccccn1)[C@H]1CC(c2c(F)cccc2F)=NC1c1ccc(-c2ccc(OC(F)(F)F)cc2)cc1` (stereo partly drawn) [Example 53] returned a chromatographic logP under setting [1] of 4.13. For `O=C(OCc1cccnc1)[C@H]1CC(c2c(F)cccc2F)=NC1c1ccc(-c2ccc(OC(F)(F)F)cc2)cc1` (stereo partly drawn) [Example 54], the chromatographic logP under setting [1] was 3.59. As to `CC(C)[C@H](C)OC(=O)[C@H]1CC(c2c(F)cccc2F)=NC1c1ccc(-c2ccc(OC(F)(F)F)cc2)cc1` (stereo partly drawn) [Example 55], the chromatographic logP under setting [1] amounted to 5.74 and the chromatographic logP under setting [2] is 5.77. With `CC(C)[C@@H](C)OC(=O)[C@H]1CC(c2c(F)cccc2F)=NC1c1ccc(-c2ccc(OC(F)(F)F)cc2)cc1` (stereo partly drawn) [Example 56], the chromatographic logP runs as follows: under setting [1], 5.65; under setting [2], 5.86. As for `CNC(=O)[C@H]1CC(c2c(F)cccc2F)=NC1c1ccc(-c2ccc(OC(F)(F)F)cc2)cc1` (stereo partly drawn) [Example 58], under setting [1], the chromatographic logP was 3.26.

Consider `CCNC(=O)[C@H]1CC(c2c(F)cccc2F)=NC1c1ccc(-c2ccc(OC(F)(F)F)cc2)cc1` (stereo partly drawn) [Example 59], for which the chromatographic logP under setting [1] is 3.49. On the same count and under the same terms, with `CCCNC(=O)[C@H]1CC(c2c(F)cccc2F)=NC1c1ccc(-c2ccc(OC(F)(F)F)cc2)cc1` (stereo partly drawn) [Example 60] the figure was 3.78. On the same count and under the same terms, next, `CCCCNC(=O)[C@H]1CC(c2c(F)cccc2F)=NC1c1ccc(-c2ccc(OC(F)(F)F)cc2)cc1` (stereo partly drawn) [Example 61]: 4.03; `CCCCCNC(=O)[C@H]1CC(c2c(F)cccc2F)=NC1c1ccc(-c2ccc(OC(F)(F)F)cc2)cc1` (stereo partly drawn) [Example 62]: 4.37. The compound `CCCCCCNC(=O)[C@H]1CC(c2c(F)cccc2F)=NC1c1ccc(-c2ccc(OC(F)(F)F)cc2)cc1` (stereo partly drawn) [Example 63] returned a chromatographic logP under setting [1] of 4.67.
